Measurements: publication PMC4365270 (Cancer Chemotherapy and Pharmacology, 2015)
“Also recorded” adds a separate entry of the source. Like-named read-outs stand apart in the source and are kept apart here.

Key:
[1] = set-up: method as in PMID 23813446; conditions: dogs; cited from earlier work
cIAP-1 = target: T1, cIAP-1 (Homo sapiens, UniProt Q13490); assay: cIAP1 IHC in skin and tumor biopsies; assay type: in vivo
T1 construct: endogenous in cells; host or cells: peripheral blood mononuclear cells (PBMCs) of patients
Experimental: (§1) Pharmacokinetic samples were taken from all patients on day 1 (predose, 0.5, 1, 2, 3, 4, 6, 8, 12, 18 h postdose) and on day 5 (predose, 0.5, 1, 2, 3, 4, 6, 8 h postdose) of the first cycle. In addition, for exploratory PD analysis of IAP inhibition and activation of apoptosis, optional skin and tumor biopsies were taken from consenting patients on days 1 (predose) and 5 and blood samples on day 1 (predose, 1, 3, 6, 8, 12 h postdose), day 2 (predose), and day 5 (3 h postdose).
cIAP-1 levels were measured in tumor tissue and surrogate tissue as available. Peripheral blood mononuclear cells (PBMCs) were analyzed for DEBIO1143-induced cIAP-1 degradation. Plasma native cytokeratin-18 (M65) or caspase-3 generated cytokeratin-18 fragments (M30), interleukin 8 (IL8), chemokine ligand 2 (CCL2, MCP1), and tumor necrosis factor α (TNFα) were measured by ELISA as markers of epithelial cell death and inflammation on days 1 (predose, 1, 3, 6, and 12 h postdose), 2, and 5.
For the detection of cIAP-1 in paraffin-embedded human tissue, a validated immunohistochemical (IHC) assay was used. DEBIO1143-induced cIAP-1 degradation was measured in PBMCs using Western blot. Plasma biomarkers were measured through commercial ELISAs. All laboratory analyses were performed by MPI Research, Inc. (PK) and Mosaic Laboratory, LLC (PD).

xenograft tumors = conditions: cited from earlier work
[2] = Plasma pharmacokinetics of DEBIO1143 in patients (LC-MS/MS); assay type: in vivo, human; conditions: for AUC(0-t) / Cmax / Tmax / AUC(0-inf) / half-life: human, plasma
Experimental: as §1
C max and t max were determined by direct assessment of the observed concentration versus time curves. The area under the curve until the last quantifiable concentration (AUC0−t) was estimated by a linear up/log down method if ≥3 values were available and extrapolated to infinity (AUCinf), if the extrapolated part was <30 %. The terminal elimination half-life (T 1/2) was calculated as the ratio of loge^2 to the apparent terminal phase rate constant (λ z), determined through unweighted linear regression analysis on ≥3 log-transformed concentrations on the linear portion of the terminal slope, excluding the peak concentration. In general, points maximizing R ^2 up to at least 0.9 were included for linear regression.
For the detection of cIAP-1 in paraffin-embedded human tissue, a validated immunohistochemical (IHC) assay was used. […] Plasma biomarkers were measured through commercial ELISAs. All laboratory analyses were performed by MPI Research, Inc. (PK) and Mosaic Laboratory, LLC (PD).

[3] = oral, 80 mg, day 1, n=3, mean (SD)
[4] = oral, 80 mg, day 5, n=3, mean (SD)
[5] = oral, 120 mg, day 1, n=3, mean (SD)
[6] = oral, 120 mg, day 5, n=3, mean (SD)
[7] = oral, 180 mg, day 1, n=7, mean (SD)
[8] = oral, 180 mg, day 5, n=7, mean (SD)
[9] = oral, 260 mg, day 1, n=3, mean (SD)
[10] = oral, 260 mg, day 5, n=3, mean (SD)
[11] = oral, 400 mg, day 1, n=3, mean (SD)
[12] = oral, 400 mg, day 5, n=3, mean (SD)
[13] = oral, 600 mg, day 1, n=3, mean (SD)
[14] = oral, 600 mg, day 5, n=3, mean (SD)
[15] = oral, 900 mg, day 1, n=6, mean (SD)
[16] = oral, 900 mg, day 5, n=6, mean (SD)

T1 sequence (Q13490 whole entry): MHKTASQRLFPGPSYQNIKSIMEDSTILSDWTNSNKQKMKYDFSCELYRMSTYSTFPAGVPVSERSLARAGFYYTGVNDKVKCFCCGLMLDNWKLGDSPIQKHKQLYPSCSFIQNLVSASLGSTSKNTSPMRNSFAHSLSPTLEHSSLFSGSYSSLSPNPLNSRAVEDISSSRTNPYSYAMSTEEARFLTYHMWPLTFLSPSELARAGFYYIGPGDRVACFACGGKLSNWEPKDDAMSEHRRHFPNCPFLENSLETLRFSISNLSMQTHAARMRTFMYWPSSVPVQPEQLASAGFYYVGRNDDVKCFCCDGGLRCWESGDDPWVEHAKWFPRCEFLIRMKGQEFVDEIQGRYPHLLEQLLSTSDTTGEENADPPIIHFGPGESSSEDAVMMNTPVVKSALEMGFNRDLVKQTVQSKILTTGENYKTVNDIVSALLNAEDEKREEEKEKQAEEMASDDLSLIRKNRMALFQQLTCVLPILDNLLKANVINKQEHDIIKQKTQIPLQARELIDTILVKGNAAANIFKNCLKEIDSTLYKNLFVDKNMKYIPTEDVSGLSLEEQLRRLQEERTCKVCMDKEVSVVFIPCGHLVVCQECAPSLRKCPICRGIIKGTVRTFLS

CN[C@@H](C)C(=O)N[C@H]1CN(C(=O)CC(C)C)CC[C@H]2CC[C@@H](C(=O)NC(c3ccccc3)c3ccccc3)N2C1=O [DEBIO1143]
Oral bioavailability [1]: good
cIAP1 level in skin biopsies (IHC) (cIAP-1; 12 patients): trend for a decrease
Immunoactivity of cIAP1 in tumor biopsy (IHC) (cIAP-1; melanoma patient, 120 mg/day, day 5, predose 150): 130
Percentage of cIAP1-positive cells in tumor biopsies (cIAP-1; melanoma patient, 400 mg/d): only negligible effect
Apoptosis (xenograft tumors): apoptosis in xenograft tumors
Dose proportionality of C max and AUC ([2]; doses 80 to 900 mg): increased proportionally; also recorded: proportional to doses ≥80 mg
Drug levels versus levels active in animal models ([2]; doses of ≥80 mg): exceeded levels that have demonstrated activity in animal models
AUC(0-t) ([2]; oral, 5 mg, day 1, n=1): 19.6 ng·h/mL
Cmax ([2]; oral, 5 mg, day 1, n=1): 6.69 ng/mL
Tmax ([2]; oral, 5 mg, day 1, n=1, read-out: T max): 3 h
AUC(0-t) ([2]; oral, 5 mg, day 5, n=1): 43.4 ng·h/mL
Cmax ([2]; oral, 5 mg, day 5, n=1): 18.5 ng/mL
Tmax ([2]; oral, 5 mg, day 5, n=1, read-out: T max): 1.6 h
AUC(0-inf) ([2]; oral, 10 mg, day 1, n=1): 152 ng·h/mL
AUC(0-t) ([2]; oral, 10 mg, day 1, n=1): 129 ng·h/mL
Cmax ([2]; oral, 10 mg, day 1, n=1): 37.4 ng/mL
half-life ([2]; oral, 10 mg, day 1, n=1, read-out: T 1/2 (converted)): 2.46 h
Tmax ([2]; oral, 10 mg, day 1, n=1, read-out: T max): 1 h
AUC(0-inf) ([2]; oral, 10 mg, day 5, n=1): 117 ng·h/mL
AUC(0-t) ([2]; oral, 10 mg, day 5, n=1): 103 ng·h/mL
Cmax ([2]; oral, 10 mg, day 5, n=1): 26.9 ng/mL
half-life ([2]; oral, 10 mg, day 5, n=1, read-out: T 1/2 (converted)): 2.53 h
Tmax ([2]; oral, 10 mg, day 5, n=1, read-out: T max): 3.5 h
AUC(0-inf) ([2]; oral, 20 mg, day 1, n=1): 643 ng·h/mL
AUC(0-t) ([2]; oral, 20 mg, day 1, n=1): 615 ng·h/mL
Cmax ([2]; oral, 20 mg, day 1, n=1): 126 ng/mL
half-life ([2]; oral, 20 mg, day 1, n=1, read-out: T 1/2 (converted)): 5.44 h
Tmax ([2]; oral, 20 mg, day 1, n=1, read-out: T max): 1 h
AUC(0-inf) ([2]; oral, 20 mg, day 5, n=1): 451 ng·h/mL
AUC(0-t) ([2]; oral, 20 mg, day 5, n=1): 375 ng·h/mL
Cmax ([2]; oral, 20 mg, day 5, n=1): 134 ng/mL
half-life ([2]; oral, 20 mg, day 5, n=1, read-out: T 1/2 (converted)): 3.37 h
Tmax ([2]; oral, 20 mg, day 5, n=1, read-out: T max): 0.5 h
AUC(0-inf) ([2]; oral, 40 mg, day 1, n=1): 2300 ng·h/mL
AUC(0-t) ([2]; oral, 40 mg, day 1, n=1): 2140 ng·h/mL
Cmax ([2]; oral, 40 mg, day 1, n=1): 627 ng/mL
half-life ([2]; oral, 40 mg, day 1, n=1, read-out: T 1/2 (converted)): 6.38 h
Tmax ([2]; oral, 40 mg, day 1, n=1, read-out: T max): 1 h
AUC(0-t) ([2]; oral, 40 mg, day 5, n=1): 1090 ng·h/mL
Cmax ([2]; oral, 40 mg, day 5, n=1): 184 ng/mL
Tmax ([2]; oral, 40 mg, day 5, n=1, read-out: T max): 6.1 h
AUC(0-inf) [2, 3]: 6660 ng·h/mL
AUC(0-t) [2, 3]: 6390 ng·h/mL
Cmax [2, 3]: 1330 ng/mL
half-life ([2]; oral, 80 mg, day 1, n=3, mean (SD), read-out: T 1/2 (converted)): 5.22 h
Tmax ([2]; oral, 80 mg, day 1, n=3, median (min–max), read-out: T max): 2 h
AUC(0-inf) [2, 4]: 5920 ng·h/mL
AUC(0-t) [2, 4]: 5020 ng·h/mL
Cmax [2, 4]: 1670 ng/mL
half-life ([2]; oral, 80 mg, day 5, n=3, mean (SD), read-out: T 1/2 (converted)): 2.69 h
Tmax ([2]; oral, 80 mg, day 5, n=3, median (min–max), read-out: T max): 2 h
AUC(0-inf) [2, 5]: 7460 ng·h/mL
AUC(0-t) [2, 5]: 6890 ng·h/mL
Cmax [2, 5]: 1650 ng/mL
half-life ([2]; oral, 120 mg, day 1, n=3, mean (SD), read-out: T 1/2 (converted)): 6.39 h
Tmax ([2]; oral, 120 mg, day 1, n=3, median (min–max), read-out: T max): 1 h
AUC(0-inf) [2, 6]: 6770 ng·h/mL
AUC(0-t) [2, 6]: 5430 ng·h/mL
Cmax [2, 6]: 1190 ng/mL
half-life ([2]; oral, 120 mg, day 5, n=3, mean (SD), read-out: T 1/2 (converted)): 2.61 h
Tmax ([2]; oral, 120 mg, day 5, n=3, median (min–max), read-out: T max): 2 h
AUC(0-inf) [2, 7]: 11400 ng·h/mL
AUC(0-t) [2, 7]: 10600 ng·h/mL
Cmax [2, 7]: 2130 ng/mL
half-life ([2]; oral, 180 mg, day 1, n=7, mean (SD), read-out: T 1/2 (converted)): 6.06 h
Tmax ([2]; oral, 180 mg, day 1, n=7, median (min–max), read-out: T max): 2 h
AUC(0-inf) [2, 8]: 9980 ng·h/mL
AUC(0-t) [2, 8]: 7210 ng·h/mL
Cmax [2, 8]: 2160 ng/mL
half-life ([2]; oral, 180 mg, day 5, n=7, mean (SD), read-out: T 1/2 (converted)): 4.14 h
Tmax ([2]; oral, 180 mg, day 5, n=7, median (min–max), read-out: T max): 2 h
AUC(0-inf) [2, 9]: 17900 ng·h/mL
AUC(0-t) [2, 9]: 16300 ng·h/mL
Cmax [2, 9]: 2890 ng/mL
half-life ([2]; oral, 260 mg, day 1, n=3, mean (SD), read-out: T 1/2 (converted)): 6.59 h
Tmax ([2]; oral, 260 mg, day 1, n=3, median (min–max), read-out: T max): 3 h
AUC(0-inf) [2, 10]: 11700 ng·h/mL
AUC(0-t) [2, 10]: 10600 ng·h/mL
Cmax [2, 10]: 2760 ng/mL
half-life ([2]; oral, 260 mg, day 5, n=3, mean (SD), read-out: T 1/2 (converted)): 3.29 h
Tmax ([2]; oral, 260 mg, day 5, n=3, median (min–max), read-out: T max): 2 h
AUC(0-inf) [2, 11]: 27000 ng·h/mL
AUC(0-t) [2, 11]: 25000 ng·h/mL
Cmax [2, 11]: 5280 ng/mL
half-life ([2]; oral, 400 mg, day 1, n=3, mean (SD), read-out: T 1/2 (converted)): 6.27 h
Tmax ([2]; oral, 400 mg, day 1, n=3, median (min–max), read-out: T max): 1 h
AUC(0-inf) [2, 12]: 26500 ng·h/mL
AUC(0-t) [2, 12]: 20100 ng·h/mL
Cmax [2, 12]: 5540 ng/mL
half-life ([2]; oral, 400 mg, day 5, n=3, mean (SD), read-out: T 1/2 (converted)): 3.7 h
Tmax ([2]; oral, 400 mg, day 5, n=3, median (min–max), read-out: T max): 0.5 h
AUC(0-inf) [2, 13]: 28700 ng·h/mL
AUC(0-t) [2, 13]: 27000 ng·h/mL
Cmax [2, 13]: 5780 ng/mL
half-life ([2]; oral, 600 mg, day 1, n=3, mean (SD), read-out: T 1/2 (converted)): 5.75 h
Tmax ([2]; oral, 600 mg, day 1, n=3, median (min–max), read-out: T max): 1.1 h
AUC(0-inf) [2, 14]: 25000 ng·h/mL
AUC(0-t) [2, 14]: 20200 ng·h/mL
Cmax [2, 14]: 7110 ng/mL
half-life ([2]; oral, 600 mg, day 5, n=3, mean (SD), read-out: T 1/2 (converted)): 3.54 h
Tmax ([2]; oral, 600 mg, day 5, n=3, median (min–max), read-out: T max): 1 h
AUC(0-inf) [2, 15]: 61500 ng·h/mL
AUC(0-t) [2, 15]: 56100 ng·h/mL
Cmax [2, 15]: 10100 ng/mL
half-life ([2]; oral, 900 mg, day 1, n=6, mean (SD), read-out: T 1/2 (converted)): 7.11 h
Tmax ([2]; oral, 900 mg, day 1, n=6, median (min–max), read-out: T max): 1.5 h
AUC(0-inf) [2, 16]: 47000 ng·h/mL
AUC(0-t) [2, 16]: 36900 ng·h/mL
Cmax [2, 16]: 10300 ng/mL
half-life ([2]; oral, 900 mg, day 5, n=6, mean (SD), read-out: T 1/2 (converted)): 3.15 h
Tmax ([2]; oral, 900 mg, day 5, n=6, median (min–max), read-out: T max): 1.5 h
half-life ([2]; oral, all doses, read-out: Average T 1/2 (converted)): ~6 h
Tmax ([2]; oral, all doses, read-out: Average t max): ~1 h
half-life ([2]; oral, day 1, regardless of the dose, read-out: Mean T 1/2, range across doses): 5.2 to 7.1 h
Tmax ([2]; po, after oral intake, read-out: Time to peak plasma concentrations): 1 to 3 h
